The subject of the assay is CEM cells HIV-1 protection, formazan growth assay. Kind of assay: NCI AIDS Antiviral Assay. To be noted: for IC50: measured here: growth of uninfected CEM cells. The gist of the method:
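Steps: treat uninfected and HIV-1-infected human CEM cells at five drug levels; quantify growth by soluble formazan; retest any compound reaching 50% protection; classify actives from the retest.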

Consider 71 compounds from PubChem BioAssay AID179 (DTP/NCI, 2004).

Activity calls are given as the source filed them.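 How the source made its calls: active means compounds giving half or more protection of infected cells from virus-caused growth loss, again on retest; inactive means the rest.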

By EC50 is commonly meant the concentration giving half of the maximal effect. The term IC50 denotes the concentration needed to halve the response being measured. A low value points to greater potency.

Consider `CC1CC(=O)c2c(cc3c(-c4c(O)cc(O)c5c(O)c6c(cc45)OC(C)CC6=O)c(O)cc(O)c3c2O)O1` (centres undefined), for which the result was inactive.

For the compound `N#CC(NC12CC3CC(CC(C3)C1)C2)c1ccc2c(c1)OCO2` (centres undefined), the outcome was inactive.

Regarding `O=c1oc2cc(O)ccc2c2oc3cc(O)ccc3c12`, the EC50 was over 0.513 µM and the IC50 was determined as 0.0162 µM.

As to `CC(=O)O[C@]1(C(C)=O)CC[C@H]2[C@@H]3C=C(Cl)C4=CC(=O)CC[C@]4(C)[C@H]3CC[C@@]21C`, the EC50 is over 200 µM and the IC50 was over 200 µM.

Turning to `O=C(CC(=O)c1ccccc1)CC(=O)c1ccccc1`, the EC50 is over 19.5 µM and the IC50 was over 19.5 µM.

For `CC(C)C(/C=C/c1ccc(Cl)cc1)=N\NC(=O)N/N=C(/C=C/c1ccc(Cl)cc1)C(C)C`, the EC50 was over 100 µM and the half-inhibitory concentration (IC50) was over 100 µM.

In the case of `O=C1C(Cl)=C(Cl)C(=O)N1c1ccc(Cl)c(Cl)c1Cl`, the outcome was inactive.

On to `O=C(ONC(=O)[C@H]1C2C=CC(C2)[C@@H]1C(=O)NOC(=O)c1ccccc1)c1ccccc1`, for which the EC50 was over 200 µM and the IC50 turned out to be 5.37 µM.

For the compound `Nc1ccc(I)cn1`, the EC50 is over 200 µM and the IC50 was over 200 µM.

Turning to `O=C1NC(=S)N/C1=C/c1ccccc1O`, the EC50 was over 200 µM and the half-maximal inhibitory concentration (IC50) is 123 µM.

Take `C#CC1(O)c2ccccc2C(=O)c2ccccc21`: the outcome was inactive.

On to `CCCCCCCCN1CCCN(/N=C/c2c3c(O)c4c(O)c(C)c5c(c4c2O)C(=O)C(C)(O/C=C/C(OC)C(C)C(OC(C)=O)C(C)C(O)C(C)C(O)C(C)/C=C/C=C(C)C(=O)N3)O5)CC1` (centres undefined), for which the EC50 was over 200 µM and the half-inhibitory concentration (IC50) came to 7.24 µM.

Turning to `CN(C)c1ccc(C2SCC(=O)N2c2ccc(Oc3ccc(Cl)cc3)c(Cl)c2)cc1` (centres undefined), the EC50 was over 200 µM and the IC50 is 29.5 µM.

Take `C[C@H](CCCN1CCOCC1)[C@H]1CC[C@H]2[C@@H]3CC[C@@H]4C[C@H](O)CC[C@]4(C)[C@H]3CC[C@]12C`: the EC50 is over 50.1 µM and the IC50 amounted to 9.12 µM.

With `Cc1ccc([N+](=O)[O-])cc1NC(=O)C(=O)C1CCC2=C(Sc3ccccc3N2)C1=O` (centres undefined), the EC50 was over 117 µM and the half-inhibitory concentration (IC50) is over 117 µM.

Regarding `O=C(O)c1[nH]c(=O)[nH]c(=O)c1C(=O)O`, the EC50 was over 200 µM and the IC50 was over 200 µM.

In the case of `N=C1N(c2ccccc2)C(=O)CC(=O)N1c1ccccc1`, the EC50 is over 200 µM and the half-maximal inhibitory concentration (IC50) amounted to 53.7 µM.

For `COc1c(O)c2c(=O)cc(OC)c3c4c(OC)cc(=O)c5c(O)c(OC)c6c(c(c1C(C(C)=O)C6C(C)O)c23)c54` (centres undefined), the EC50 is over 20 µM and the IC50 came out at 0.316 µM.

Take `O=c1cc(O)c2ccc(O)cc2o1`: the EC50 was over 40.7 µM and the IC50 was over 40.7 µM.

`[N-]=[N+]=NC1(c2ccccc2)C(=O)c2cccc3c4ccccc4n(c23)C1=O` (centres undefined): the EC50 was over 200 µM and the IC50 was over 200 µM.

Regarding `COP(=O)(OC)OC1C(=O)NC(=O)NC1=O`, the EC50 is over 200 µM and the IC50 was over 200 µM.

Consider `O=C(c1ccc(Cl)cc1)c1ccc(OCCCOc2ccc(C(=O)c3ccc(Cl)cc3)cc2)cc1`, for which the EC50 is over 20 µM and the IC50 is over 20 µM.

For `CCOC(=O)c1[nH]c(COC(C)=O)c2c1CCCCCCCCCC2`, the result was inactive.

For `O=S1(=O)OCCOS(=O)(=O)C1I`, the EC50 is over 759 µM and the concentration for half-maximal inhibition (IC50) was 132 µM.

Turning to `COc1ccccc1C(=O)NO`, the EC50 was over 200 µM and the IC50 is over 200 µM.

`NC(=O)COC(=O)c1c(Cl)nc2sccn12`: the EC50 is over 347 µM and the IC50 is over 347 µM.

Turning to `CC1=C[C@@]2(C=C(C(=O)O)[C@@]34CCCC(C)(C)C3C[C@@H]2OC4)OC1=O` (some centres undefined), the EC50 was over 380 µM and the IC50 is over 380 µM.

As to `O=S(=O)(O)c1cc(O)c2c(O)cc(S(=O)(=O)O)c(N=Nc3ccc(/C=C/c4ccc(N=Nc5c(S(=O)(=O)O)cc(O)c6c(O)cc(S(=O)(=O)O)cc56)cc4S(=O)(=O)O)c(S(=O)(=O)O)c3)c2c1`, the EC50 is 15.5 µM and the IC50 came out at 75.9 µM.

For `CCC1(CC(=O)N(C)C)CCCN(C(=O)Oc2ccccc2)C1` (centres undefined), the EC50 was over 31.6 µM and the IC50 is over 31.6 µM.

As to `CCOC(=O)C[C@@H]1C2(C=C[C@@]13CO3)OCC(C)(C)CO2`, the EC50 was over 200 µM and the 50% inhibitory concentration (IC50) was determined as 129 µM.

Consider `CCOC(=O)C(=O)/C(=C/n1c(=S)[nH]c2ccc([N+](=O)[O-])cc21)C(=O)OCC`, for which the EC50 is over 200 µM and the IC50 turned out to be 77.6 µM.

Consider `Cn1c(CCN=C(N)CSS(=O)(=O)O)nc2ccccc21`, for which the EC50 is over 200 µM and the IC50 came out at 174 µM.

Consider `CCCCCCCCCCNC(C)=O`, for which the EC50 is over 200 µM and the half-maximal inhibitory concentration (IC50) stood at 85.1 µM.

As to `CC(OC1C(N)C(O)OC(CO)C1O)C(=O)O` (centres undefined), the outcome was inactive.

As for `C1=CC(=[N+]2N=C(c3ccccc3)CC2c2ccccc2)C=CC1=C1SC(c2ccccc2)(c2ccccc2)c2ccccc21` (centres undefined), the EC50 was over 200 µM and the IC50 is over 200 µM.

`CCOC(=O)NC1=NCC(C)S1` (centres undefined): the outcome was inactive.

With `NC(N)=NS(=O)(=O)c1ccc(Nc2c3ccccc3nc3c(C(=O)N4CCN(CCO)CC4)ccc(Cl)c23)cc1`, the EC50 was over 38 µM and the IC50 is over 38 µM.

Turning to `CCCCCCOc1ccc(C(=O)NOCc2ccccc2)cc1`, the EC50 is over 200 µM and the IC50 is 66.1 µM.

Take `COc1ccc(-c2c(C(C)=O)c(C)n(C3OC(CO)C(O)C(O)C3O)c(=S)c2C#N)cc1` (centres undefined): the EC50 was over 200 µM and the IC50 is 58.9 µM.

On to `N#Cc1c(C(N)=O)ncn1Cc1ccccc1`, for which the result was inactive.

Turning to `CCCCCCCCCCCCCCCCNc1ccn(C2CC(OP(=O)(O)OCC3CCC(n4ccc(N)nc4=O)O3)C(CO)O2)c(=O)n1` (centres undefined), the EC50 is 1 µM and the 50% inhibitory concentration (IC50) is 97.7 µM.

Turning to `CCOC(=O)CN1C(=O)C(=O)N(c2ccc(OC)c3ccccc23)C1=O`, the EC50 was over 200 µM and the IC50 was over 200 µM.

Consider `Cc1nn2c(=O)n(-c3cccc(-n4nnc5c(-c6ccccc6)c(C)nn5c4=O)c3C)nnc2c1-c1ccccc1`, for which the outcome was inactive.

`N#Cc1ccccc1C(Cl)(Cl)c1cnccn1`: the EC50 was over 490 µM and the IC50 was determined as 64.6 µM.

As for `O=[N+]([O-])c1ccc2[nH]c(=S)n(/C=C(/c3ccc(Cl)cc3Cl)S(=O)(=O)Cc3ccc(Cl)cc3Cl)c2c1`, the EC50 is over 200 µM and the IC50 is 170 µM.

Regarding `Cc1cc2c(cc1C)[n+](=O)c(C(=O)C/C(=N/NC(=O)CC#N)C(=O)Nc1ccccc1C(F)(F)F)c(C)n2[O-]`, the EC50 is over 13.2 µM and the IC50 is over 13.2 µM.

Consider `O=C1C(C=NC(=S)c2ccccc2)=C(O)c2ccccc21`, for which the EC50 was over 200 µM and the IC50 stood at 166 µM.

As for `Cc1ccc(C)c(NC(=O)C(=O)CC(=O)c2cccc3ccccc23)c1`, the EC50 is over 105 µM and the IC50 is over 105 µM.

Turning to `COC(=O)c1nc2c(C)c(O)c(O)c([C@H](C)CCC=C(C)C)c2o1`, the EC50 was over 200 µM and the IC50 stood at 13.5 µM.

As for `Cc1[nH]c(C)c2ccc(=O)ccc12`, the EC50 is over 240 µM and the IC50 was found to be 145 µM.

Regarding `S=c1cc(-c2ccc3c(c2)OCO3)s[nH]1`, the EC50 was over 200 µM and the IC50 worked out at 162 µM.

On to `COc1c(OC)c(OC)c2c(=O)cc(-c3ccc(OC(C)=O)cc3)oc2c1OC`, for which the EC50 was over 200 µM and the IC50 is 19.5 µM.

As to `Cc1nc(N/N=C/c2ccccc2Cl)[nH]c(=O)c1CCO`, the EC50 was over 100 µM and the IC50 was over 100 µM.

Regarding `CC(C)c1cccc(C(C)C)c1NC(=S)N=Nc1cc(C(C)(C)C)c(O)c(C(C)(C)C)c1`, the EC50 is over 5.75 µM and the IC50 is over 5.75 µM.

On to `Nc1ccc(/C=C\c2ccc([N+](=O)[O-])cc2S(=O)(=O)O)c(S(=O)(=O)O)c1`, for which the EC50 was over 200 µM and the IC50 is over 200 µM.

Regarding `COc1c(OCc2ccccc2)c(OCc2ccccc2)cc(CO)c1-c1c(CO)cc(OCc2ccccc2)c(OCc2ccccc2)c1OC`, the EC50 is over 2.88 µM and the half-inhibitory concentration (IC50) was over 2.88 µM.

For the compound `C1CCC(N2OC23CCCCC3)CC1` (centres undefined), the outcome was inactive.

For the compound `CC(=O)OC1Cn2ccc[n+]2C1` (centres undefined), the EC50 was over 200 µM and the IC50 is over 200 µM.

In the case of `COC(=O)c1cccc2cccc(C(=O)Nc3ccc(Cl)cc3)c12`, the EC50 is over 11.2 µM and the IC50 was over 11.2 µM.

Consider `COc1ccc2c(c1)C(=O)C1NC(=O)NC(=O)C1(Br)N2` (centres undefined), for which the EC50 is over 200 µM and the IC50 is over 200 µM.

`O=C(Oc1c(Br)cc(Br)cc1C(=O)Oc1ccccc1)C(=O)Oc1c(Br)cc(Br)cc1C(=O)Oc1ccccc1`: the EC50 was over 200 µM and the IC50 turned out to be 30.9 µM.

On to `CC1(C)C(c2ccccc2)=NN(O)c2ccccc21`, for which the outcome was inactive.

With `CC1=NN(C(=O)c2ccccc2Br)C(=O)C1N=Nc1ccccc1C(=O)O` (centres undefined), the outcome was inactive.

Take `CCOC(=O)C(C(=O)OCC)=c1sc(=C(C(=O)OCC)C(=O)OCC)s1`: the result was inactive.

Take `COc1cc(C(=O)N2C[C@H](O)C[C@H]2C(=O)O)cc(OC)c1OC`: the EC50 is over 200 µM and the IC50 is over 200 µM.

In the case of `N#C/C(=C\c1ccc(O)cc1)c1ccc([N+](=O)[O-])cc1`, the EC50 was over 200 µM and the half-inhibitory concentration (IC50) was 174 µM.

With `NC(=O)C(=CNC(=S)Nc1ccc(Cl)c(Cl)c1)C(N)=O`, the EC50 was over 200 µM and the IC50 is 30.2 µM.

In the case of `N#C/C(=C\c1cccc(Br)c1)C(=O)c1ccccc1`, the EC50 was over 115 µM and the IC50 was 50.1 µM.

On to `COc1ccc(/C(=N\N=C(N)N)C(c2ccc(OC)cc2)C2OC(=O)c3ccccc32)cc1` (centres undefined), for which the EC50 is over 3.24 µM and the IC50 is over 3.24 µM.

Take `Cc1c(COC(=O)NC(C)C)c(COC(=O)NC(C)C)c2n1CS(=O)(=O)C2`: the EC50 was over 200 µM and the IC50 is over 200 µM.

Turning to `O=C(NC(CO)CO)c1ccc2cc(C(=O)N3CC(CCl)c4ccc([N+](=O)[O-])cc43)[nH]c2c1` (centres undefined), the EC50 was over 200 µM and the IC50 is 53.7 µM.
